Results on nine molecules are retold here after patent US6667346B2, “Method for protecting cells and tissues from ionizing radiation toxicity with α, β unsaturated aryl sulfones” (Temple University - Of The Commonwealth System of Higher …, priority 2001, dated 2003).

In one assay the test system is DU145 cells. As to the kind of experiment: Tumor cell killing by ionizing radiation, compound added after IR treatment. The conditions noted are these: for Interference with killing of tumor cells by ionizing radiation: continuous exposure, added immediately following 10 Gy IR. In kind it is cell-based. Here is the method: DU145 cells were plated in 6 well dishes at a cell density of 1.0×10^5 cells per 35 mm^2 in DMEM completed with 10% fetal bovine serum and antibiotics. The plates were incubated overnight and the cells were irradiated with 10 Gy of ionizing irradiation. Compound 1 (1.0 uM and 2.0 uM) or Compound 13 (10.0 uM and 20.0 uM) in DMSO was added to the cells immediately following the IR treatment.

For the next assay, the system named is HFL-1 cells. As to the kind of experiment: Radioprotective effects on cultured normal cells (colony formation after irradiation). In kind it is cell-based, human. Particulars: HFL-1 normal diploid lung fibroblasts; 2.5 to 20 micromolar for 24 hrs before 10 Gy or 15 Gy IR; colonies counted after 3 weeks. As for the experimental part: HFL-1 cells, which are normal diploid lung fibroblasts, were plated into 24 well dishes at a cell density of 3000 cells per 10 mm^2 in DMEM completed with 10% fetal bovine serum and antibiotics. The test compounds listed in Table 16 were added to the cells 24 hours later in select concentrations from 2.5 to 20 micromolar, inclusive, using DMSO as a solvent. Control cells were treated with DMSO alone. The cells were exposed to the test compound or DMSO for 24 hrs. The cells were then irradiated with either 10 Gy (gray) or 15 Gy of ionizing radiation (IR) using a J. L. Shepherd Mark I, Model 30-1 Irradiator equipped with ^137cesium as a source.
After irradiation, the medium on the test and control cells was removed and replaced with fresh growth medium without the test compounds or DMSO. The irradiated cells were incubated for 96 hours and duplicate wells were trypsinized and replated onto 100 mm^2 tissue culture dishes. The replated cells were grown under normal conditions with one change of fresh medium for 3 weeks. The number of colonies from each 100 mm^2 culture dish, which represents the number of surviving cells, was determined by staining the dishes as described below.
To visualize and count the colonies derived from the clonal outgrowth of individual radioprotected cells, the medium was removed and the plates were washed one time with room temperature phosphate buffered saline. The cells were stained with a 1:10 diluted Modified Giemsa staining solution (Sigma) for 20 minutes. The stain was removed, and the plates were washed with tap water. The plates were air dried, the number of colonies from each plate were counted and the average from duplicate plates was determined.
A “+” indicates radioprotective activity of between 2- and 4.5-fold at the concentrations tested. Fold protection was determined by dividing the average number of colonies from the test plates by the average number of colonies on the control plates.

The next assay deals with C57 black mice. As to the kind of experiment: Protection of mice from radiation toxicity by pre-treatment (mortality after 8 Gy). In kind it is in vivo. As for the experimental part: C57 black mice age 10-12 weeks (Taconic) were divided into two treatment groups of 10 mice each. One group, designated the “200×2” group, received intraperitoneal injections of 200 micrograms (E)-4-carboxystyryl-4-chlorobenzylsulfone dissolved in DMSO (a 10 mg/Kg dose, based on 20 g mice) 18 and 6 hours before irradiation with 8 Gy gamma radiation. The other group, designated “500×2,” received intraperitoneal injections of 500 micrograms (E)-4-carboxystyryl-4-chlorobenzylsulfone dissolved in DMSO (a 25 mg/Kg dose, based on 20 g mice) 18 and 6 hours before irradiation with 8 Gy gamma radiation. A control group of 16 animals received 8 Gy gamma radiation alone.

In another assay the test system is C57 B6/J mice. As to the kind of experiment: Radioprotective effect in mice when given after radiation exposure (mortality after 8 Gy). In kind it is in vivo. As for the experimental part:
One group, designated the “200×2” group, received intraperitoneal injections of 200 micrograms (E)-4-carboxystyryl-4-chlorobenzylsulfone dissolved in DMSO (a 10 mg/Kg dose, assuming 20 g mice) 18 and 6 hours before irradiation with 8 Gy gamma radiation. The other group, designated “200 Post,” received an intraperitoneal injection of 200 micrograms (E)-4-carboxystyryl-4-chlorobenzylsulfone dissolved in DMSO (a 10 mg/Kg dose, based on 20 g mice) 15 minutes after irradiation with 8 Gy gamma radiation. A control group of 16 animals received 8 Gy gamma radiation alone.

[1] abbreviates: "200×2" group: 10 mg/Kg i.p. 18 and 6 hours before 8 Gy gamma radiation.
Where [2] appears, read: "500×2" group: 25 mg/Kg i.p. 18 and 6 hours before 8 Gy gamma radiation.

As for `O=S(=O)(/C=C/c1ccc(F)cc1)Cc1ccc(Cl)cc1` [Compound 1, (E)-4-Fluorostyryl-4-chlorobenzylsulfone], the “Additive tumor cell killing effect” value with DU145 cells (2.0 uM added immediately following 10 Gy IR) is reported as “additive tumor cell killing effect”. Besides, the “Interference with killing of tumor cells by ionizing radiation” value in the assay on DU145 cells was “did not interfere with the killing of tumor cells by ionizing radiation”. In addition, the “Activity (radioprotective activity, fold protection: colonies test/control)” value in the assay with HFL-1 cells is “+ (radioprotective activity of between 2- and 4.5-fold at the concentrations tested)”.

For `O=S(=O)(/C=C\c1ccc(F)cc1)Cc1ccc(Cl)cc1` [Compound 7, (Z)-4-Fluorostyryl-4-chlorobenzylsulfone], the “Activity (radioprotective activity, fold protection: colonies test/control)” value with HFL-1 cells is “+ (radioprotective activity of between 2- and 4.5-fold at the concentrations tested)”.

On to `O=S(=O)(/C=C/c1ccoc1)Cc1ccc(Cl)cc1Cl` [Compound 8, (E)-3-Furanethenyl-2,4-dichlorobenzylsulfone], for which the “Activity (radioprotective activity, fold protection: colonies test/control)” value with HFL-1 cells is “+ (radioprotective activity of between 2- and 4.5-fold at the concentrations tested)”.

Consider `O=C(O)c1ccc(/C=C/S(=O)(=O)Cc2ccc(Cl)cc2)cc1` [Compound 13, (E)-4-Carboxystyryl-4-chlorobenzylsulfone], for which the “Additive tumor cell killing effect” value with DU145 cells (20 uM added immediately following 10 Gy IR) is recorded as “additive tumor cell killing effect”. In addition, the “Interference with killing of tumor cells by ionizing radiation” value with DU145 cells was “did not interfere with the killing of tumor cells by ionizing radiation”. Further, the “Maximum mortality rate by day 40” value with C57 black mice (setting [1]) is recorded as “approximately 60%”; with C57 black mice (setting [2]), “about 50%”. Moreover, the “Mice dead at day 20 post-irradiation” value with C57 black mice (setting [1]) is given as “about 50%”; in the assay with C57 black mice (setting [2]) it was “about 30%”. Further, in the assay on C57 black mice (pretreatment 18 and 6 hours before 8 Gy gamma radiation), the “Radiation toxicity in mice” value is given as “significantly reduced”. The “Activity (radioprotective activity, fold protection: colonies test/control)” value in the assay with HFL-1 cells is “+ (radioprotective activity of between 2- and 4.5-fold at the concentrations tested)”. Besides, the “Radioprotection by post-irradiation treatment versus pre-irradiation treatment” value in the assay with C57 B6/J mice ("200 Post" vs "200×2" group, 8 Gy gamma radiation) is “not as great as seen with pre-irradiation treatment”. In addition, the “Radiation-induced mortality compared with control animals” value in the assay with C57 B6/J mice ("200 Post": 10 mg/Kg i.p. 15 minutes after 8 Gy gamma radiation) is “significant delay in radiation-induced mortality”.

With “(E)-2,4,6-Trimethoxystyryl-4-methoxybenzylsulfone [Compound 2]”, the “Activity (radioprotective activity, fold protection: colonies test/control)” value in the assay with HFL-1 cells is “+ (radioprotective activity of between 2- and 4.5-fold at the concentrations tested)”.

On to “(E)-4-Fluorostyryl-4-chlorophenylsulfone [Compound 10]”, for which, in the assay with HFL-1 cells, the “Activity (radioprotective activity, fold protection: colonies test/control)” value was “+ (radioprotective activity of between 2- and 4.5-fold at the concentrations tested)”.

For the molecule “(E)-4-Fluorostyryl-4-cyanobenzylsulfone [Compound 6]”, the “Activity (radioprotective activity, fold protection: colonies test/control)” value in the assay on HFL-1 cells was “+ (radioprotective activity of between 2- and 4.5-fold at the concentrations tested)”.

In the case of “(E)-4-Fluorostyryl-4-trifluoromethylbenzylsulfone [Compound 5]”, the “Activity (radioprotective activity, fold protection: colonies test/control)” value in the assay on HFL-1 cells is “+ (radioprotective activity of between 2- and 4.5-fold at the concentrations tested)”.

Take “(Z)-Styryl-(E)-2-methoxy-4-ethoxystyrylsulfone [Compound 11]”: the “Activity (radioprotective activity, fold protection: colonies test/control)” value in the assay on HFL-1 cells was “+ (radioprotective activity of between 2- and 4.5-fold at the concentrations tested)”.
